Reference: patent US9738669B2, “Pentaaza macrocyclic ring complexes possessing oral bioavailability” (Galera Labs, LLC, priority 2015, dated 2017)

Experiments:
[1] = Intraduodenal (id) bioavailability screen in minipigs, plasma level of parent Mn complex by HPLC/MS/MS; format: in vivo, Gottingen minipig; details: id 10 mg/kg, vs 1 mg/kg iv parent chloro complex, AUC0→24 h
Description: Compounds were screened for oral bioavailability by injecting the formulated prodrugs directly into the duodenum (intraduodenal or id administration) of the minipig test subjects, thus bypassing the acidic environment of the stomach and thereby eliminating potentially misleading oral bioavailability results that could arise from alteration of the test article drug in the acid environment of the stomach.
The studies were conducted at Xenometrics LLC (Stillwell, Kans.) and the id bioavailability was determined using various axial ligand derivative complexes of GC4419, GC4444, GC4403 and GC4401.
Male Gottingen minipigs (4-5 mo old, 9-12 kg weight) were purchased from Marshall BioResources and housed at Xenometrics. […] The distal end was exteriorized with a reusable accessible hub (see surgical details below). During a recovery period of at least 2 weeks the minipigs were handled daily to acclimate them to the test procedures, i.e., id dosing and blood collections. For each experiment, each minipig received a test article drug dissolved or suspended in an excipient vehicle. […] All dosing experiments were conducted in fasted animals. Food was withdrawn from the minipigs 16 hours before dosing. The minipigs had ad libitum access to water. Dosed minipigs were allowed access to food 6 hour after dosing. The test article was administered at a dose of 10 mg/kg parent drug in 0.1 mL/kg vehicle (e.g., 1.5 mL in 15 kg minipig) as a bolus injection (˜1 minute) via the id cannula. The actual amount of total test article drug administered varied with the formula weight of the prodrug. An equal volume of excipient vehicle was used to flush the cannula after the test article was administered. Approximately 6 hours later, corn oil was used to flush the cannula. After approximately 24 hours post-dose, the catheter was flushed with sterile saline solution and capped. At the following time-points 0.25, 0.5, 1, 2, 4, 8, 24 and 48 hour post-injection, 2 mL blood samples were collected by cranial vena cava puncture (4 mL Sodium heparin Vacutainer, 20 g 1.5″ needle) after the skin surface was wiped with ethanol. The minipig was placed in a sling in a recumbent position without anesthesia for the collection of blood samples. The minipigs were never used more than once per 7 days for experimentation. The blood samples were kept on ice until processed for plasma. Blood samples were centrifuged at 1200×g for ten minutes at 4° C. and plasma samples were transferred to 96 well plate tubes, capped and stored at −20° C. until shipment on dry ice to the analytical laboratory used for measuring the concentration of drug in the plasma. The concentration of the parent manganese pentaaza macrocylic ring complex (independent of the composition of the axial ligands) was measured in plasma using a validated HPLC/MS/MS method that is linear between 50 ng/mL and 20,000 ng/mL.
The oils used for preparing the dosing solutions were used as supplied from commercial sources. The Capmul MCM (NF) is a mixture of mono/diglycerides of caprylic/capric acids and was supplied by ABITEC Corporation, Janesville, Wis. The Miglyol 812 N is a mixture of caprylic/capric acid triglycerides and was supplied by Cremer Oleo Division, Eatontown, N.J. Labrafil M 2125 CS (NF) is chemically defined to be linoleoyl polyoxyl-6 glycerides NF and was supplied by Gattefosse, SAINT-PRIEST Cedex, France. Peceol is chemically defined to be the monoglyceride, glyceryl monooleate NF, and was supplied by Gattefosse, SAINT-PRIEST Cedex, France. Maisine 35-1 is chemically defined to be the monoglyceride glyceryl monolinoleate (NF) and was supplied by Gattefosse, SAINT-PRIEST Cedex, France. Labrasol (NF) is chemically defined to be caprylocaproyl polyoxyl-8 glycerides NF and was supplied by Gattefosse, SAINT-PRIEST Cedex, France. Labrafil M 1944 CS is chemically defined to be oleoyl polyoxyl-6 glycerides (NF), and is available from Gattefosse, SAINT-PRIEST Cedex, France. […]

Solubility in water = format: physicochemical
[2] = system: VEGFr inhibitor-induced pulmonary disease; details: ip, rat model; cited from earlier work
[3] = system: oral mucositis in head-and-neck cancer patients; details: intravenous (iv) infusion, head-and-neck cancer patients undergoing chemoradiation therapy; cited from earlier work
[4] = system: rats subjected to an experimental model of colitis; details: ip injection; cited from earlier work
[5] = system: hamster model of acute, radiation-induced oral mucositis; details: ip; cited from earlier work
[6] = system: lethal total body irradiation of adult mice; details: ip; cited from earlier work
[7] = system: rat model of inflammation; details: ip; cited from earlier work
[8] = system: rat model of collagen-induced arthritis; details: ip; cited from earlier work
[9] = base oil Capmul MCM, 10% by weight
[10] = base oil Maisine 35-1, 10% by weight

Compound | Mini-Pig BioA [1, 9] [%] | Mini-Pig BioA [1, 10] [%] | Mini-Pig BioA ([1]; base oil Peceol, 10% by weight) [%] | other results
[Cl][Mn][Cl].c1cc2nc(c1)CN[C@H]1CCCC[C@@H]1NCCN[C@H]1CCCC[C@@H]1NC2 [GC4419, reference compound] | 9 | 8 | 9 | Mini-Pig BioA ([1]; base oil Labrafil M2125 CS, 10% by weight): 7%; Mini-Pig BioA ([1]; base oil Miglyol 812N, 10% by weight): 8%; solubility in water (Solubility in water): relatively readily soluble in water; VEGFr inhibitor-induced pulmonary disease [2]: attenuate VEGFr inhibitor-induced pulmonary disease; oral mucositis [3]: reduce oral mucositis
[Cl-].[Cl-].[Mn+2].c1cc2nc(c1)CN[C@@H]1CCCC[C@H]1NCCN[C@@H]1CCCC[C@H]1NC2 [GC4403] | 9 |  |  | injury to the colon [4]: significantly reduce the injury to the colon; radiation damage [5]: attenuate the radiation damage; radiation damage [6]: attenuate the radiation damage; inflammation [7]: inhibit inflammation; joint disease [8]: prevent joint disease
Manganese(II)bis-racemic-2-phenylpropionato[(4aS,13aS,17aS,21aS)-1,2,3,4,4a,5,6,12,13,13a,14,15,16,17,17a,18,19,20,21,21a-Eicosahydro-11,7-nitrilo-7H-dibenzo[b,h][1,4,7,10]tetraazacycloheptadecine-κN5,κN13,κN18,κN21,κN22]- [GC4705] | 23 |  | 24 | 
Manganese(II)bis-L-Lactato[(4aS,13aS,17aS,21aS)-1,2,3,4,4a,5,6,12,13,13a,14,15,16,17,17a,18,19,20,21,21a-Eicosahydro-11,7-nitrilo-7H-dibenzo[b,h][1,4,7,10]tetraazacycloheptadecine-κN5,κN13,κN18,κN21,κN22]- [GC4714] | 36 |  |  | 
Manganese(II)bis-phenylglyoxaloto[(4aS,13aS,17aS,21aS)-1,2,3,4,4a,5,6,12,13,13a,14,15,16,17,17a,18,19,20,21,21a-Eicosahydro-11,7-nitrilo-7H-dibenzo[b,h][1,4,7,10]tetraazacyclohepta-decine-κN5,κN13,κN18,κN21,κN22]- [GC4719] | 25 | 31 | 28 | 
Manganese(II)bis-Benzoato[(4aS,13aS,17aS,21aS)-1,2,3,4,4a,5,6,12,13,13a,14,15,16,17,17a,18,19,20,21,21a-Eicosahydro-11,7-nitrilo-7H-dibenzo[b,h][1,4,7,10]tetraazacycloheptadecine-κN5,κN13,κN18,κN21,κN22]- [GC4712] | 24 | 18 | 29 | 
